Results published in patent US8106055B2, “Substituted amide compounds” (Gruenenthal GmbH, priority 2007, dated 2012).

What follows are molecules tested against T1, bradykinin 1 receptor (B1R) of the rat (Rattus norvegicus, UniProt P97583) (assay: Functional investigation on the rat bradykinin 1 receptor (B1R), Ca2+ FLIPR assay in CHO K1 rB1R cells). Conditions: CHO-K1, B1R antagonism rat; test substance 10 μM; Ca2+ FLIPR, CHO K1 rB1R cells; read-out: B1R Ant. r [10 μM] % Inhibition.
T1 construct: expressed in transfected cells; host or cells: CHO K1 cells
T1 sequence (P97583 1-337): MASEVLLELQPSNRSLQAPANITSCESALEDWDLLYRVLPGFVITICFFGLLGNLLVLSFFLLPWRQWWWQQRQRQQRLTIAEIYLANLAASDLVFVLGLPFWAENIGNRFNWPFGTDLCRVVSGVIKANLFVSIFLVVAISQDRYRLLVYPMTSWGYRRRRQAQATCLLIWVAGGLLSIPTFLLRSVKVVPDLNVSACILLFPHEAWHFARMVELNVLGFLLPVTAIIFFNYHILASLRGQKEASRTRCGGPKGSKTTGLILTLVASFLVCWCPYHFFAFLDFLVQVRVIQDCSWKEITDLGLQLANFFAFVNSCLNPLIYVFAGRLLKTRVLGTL
Assay type: cell-based
Procedure, shortened: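 Stably transfected CHO K1 cells loaded with Fluo-4; FLIPR Ca2+ fluorescence peak (ex 488/em 540 nm). Compound added first (agonism vs Lys-Des-Arg9-bradykinin ≥50 nM human, Des-Arg9-bradykinin 10 μM rat), then after 10-20 min agonist at EC80; antagonism as % inhibition, IC50 from concentration series, n=2-3, N≥2.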

| Structure (SMILES) | inhibition at 10 µM |
| --- | --- |
| CN(C)C(c1ccccc1)C1CCC(NC(=O)COCCN(C)S(=O)(=O)c2c(Cl)cc(Cl)cc2Cl)CC1 (centres unmarked) [Example 34, N-(4-((dimethylamino)(phenyl)methyl)cyclohexyl)-2-(2-(2,4,6-trichloro-N-methylphenylsulfonamido)ethoxy)acetamide] | 24% |
| COc1ccc(S(=O)(=O)N2Cc3ccccc3CC2COCC(=O)NCCC2CCC(C(c3cccs3)N(C)C)CC2)cc1 (centres unmarked) [Example 48, N-(2-(4-((dimethylamino)(thiophen-2-yl)methyl)cyclohexyl)ethyl)-2-((2-(4-methoxyphenylsulfonyl)-1,2,3,4-tetrahydroisoquinolin-3-yl)methoxy)acetamide] | 22% |
| COc1cc(C)c(S(=O)(=O)N(C)CCOCC(=O)NCCC2CCC(C(c3cccs3)N(C)C)CC2)c(C)c1C (centres unmarked) [Example 52, N-(2-(4-((dimethylamino)(thiophen-2-yl)methyl)cyclohexyl)ethyl)-2-(2-(4-methoxy-N,2,3,6-tetramethylphenylsulfonamido)ethoxy)acetamide] | 53% |
| CN(C)C(c1cccs1)C1CCC(CNC(=O)COCCN(C)S(=O)(=O)c2ccc(OC(F)(F)F)cc2)CC1 (centres unmarked) [Example 93, N-((4-((dimethylamino)(thiophen-2-yl)methyl)cyclohexyl)methyl)-2-(2-(N-methyl-4-(trifluoromethoxy)phenylsulfonamido)ethoxy)acetamide] | 6% |
| Cc1cc(C)c(S(=O)(=O)N2CCC(OCC(=O)NCCC3CCC(C(c4cccs4)N(C)C)CC3)C2)c(C)c1 (centres unmarked) [Example 71, N-(2-(4-((dimethylamino)(thiophen-2-yl)methyl)cyclohexyl)ethyl)-2-(1-(mesitylsulfonyl)pyrrolidin-3-yloxy)acetamide] | 54% |
| COc1cc(C)c(S(=O)(=O)N2CCC(CCOCC(=O)NC3CCC(C(c4cccs4)N(C)C)CC3)CC2)c(C)c1C (centres unmarked) [Example 5, N-(4-((dimethylamino)(thiophen-2-yl)methyl)cyclohexyl)-2-(2-(1-(4-methoxy-2,3,6-trimethylphenylsulfonyl)piperidin-4-yl)ethoxy)acetamide] | -3% |
| CN(C)C(c1ccccc1)C1CCC(CNC(=O)COC2CCN(S(=O)(=O)c3ccc(Cl)cc3)C2)CC1 (centres unmarked) [Example 81, 2-(1-(4-chlorophenylsulfonyl)pyrrolidin-3-yloxy)-N-((4-((dimethylamino)(phenyl)methyl)cyclohexyl)methyl)acetamide] | 5% |
| CN(C)C(c1cccs1)C1CCC(CCNC(=O)COCCN(C)S(=O)(=O)c2ccc(F)cc2)CC1 (centres unmarked) [Example 85, N-(2-(4-((dimethylamino)(thiophen-2-yl)methyl)cyclohexyl)ethyl)-2-(2-(4-fluoro-N-methylphenylsulfonamido)ethoxy)acetamide] | 12% |
| COc1cc(C)c(S(=O)(=O)N2CCC(OCC(=O)NCC3CCC(C(c4cccs4)N(C)C)CC3)C2)c(C)c1C (centres unmarked) [Example 58, N-((4-((dimethylamino)(thiophen-2-yl)methyl)cyclohexyl)methyl)-2-(1-(4-methoxy-2,3,6-trimethylphenylsulfonyl)pyrrolidin-3-yloxy)acetamide] | 5% |
| CN(C)C(c1cccc(F)c1)C1CCC(CNC(=O)COCCN(C)S(=O)(=O)c2c(Cl)cccc2Cl)CC1 (centres unmarked) [Example 72, 2-(2-(2,6-dichloro-N-methylphenylsulfonamido)ethoxy)-N-((4-((dimethylamino)(3-fluorophenyl)methyl)cyclohexyl)methyl)acetamide] | 38% |
| COc1ccc(S(=O)(=O)N2CCCCC2COCC(=O)NCC2CCC(C(c3cccs3)N(C)C)CC2)c(OC)c1 (centres unmarked) [Example 49, 2-((1-(2,4-dimethoxyphenylsulfonyl)piperidin-2-yl)methoxy)-N-((4-((dimethylamino)(thiophen-2-yl)methyl)cyclohexyl)methyl)acetamide] | 23% |
| COc1cc(C)c(S(=O)(=O)N(C)CCOCC(=O)NCC2CCC(C(c3cccs3)N(C)C)CC2)c(C)c1C (centres unmarked) [Example 35, N-((4-((dimethylamino)(thiophen-2-yl)methyl)cyclohexyl)methyl)-2-(2-(4-methoxy-N,2,3,6-tetramethylphenylsulfonamido)ethoxy)acetamide] | 0% |
| CN(C)C(c1cccs1)C1CCC(CNC(=O)COC2CCN(S(=O)(=O)c3ccccc3)C2)CC1 (centres unmarked) [Example 36, N-((4-((dimethylamino)(thiophen-2-yl)methyl)cyclohexyl)methyl)-2-(1-(phenylsulfonyl)pyrrolidin-3-yloxy)acetamide] | 3% |
| COc1cc(C)c(S(=O)(=O)N2CCC(OCC(=O)NCC3CCC(C(c4ccccc4)N(C)C)CC3)C2)c(C)c1C (centres unmarked) [Example 44, N-((4-((dimethylamino)(phenyl)methyl)cyclohexyl)methyl)-2-(1-(4-methoxy-2,3,6-trimethylphenylsulfonyl)pyrrolidin-3-yloxy)acetamide] | 22% |
| CN(C)C(c1cccc(F)c1)C1CCC(CCNC(=O)COCCN(C)S(=O)(=O)c2c(Cl)cccc2Cl)CC1 (centres unmarked) [Example 41, 2-(2-(2,6-dichloro-N-methylphenylsulfonamido)ethoxy)-N-(2-(4-((dimethylamino)(3-fluorophenyl)methyl)cyclohexyl)ethyl)acetamide] | 54% |
| CN(C)C(c1ccccc1)C1CCC(CNC(=O)COCCN(C)S(=O)(=O)c2cccc(C(F)(F)F)c2)CC1 (centres unmarked) [Example 91, N-((4-((dimethylamino)(phenyl)methyl)cyclohexyl)methyl)-2-(2-(N-methyl-3-(trifluoromethyl)phenylsulfonamido)ethoxy)acetamide] | 34% |
| CN(C)C(c1cccc(F)c1)C1CCC(CNC(=O)COCCN(C)S(=O)(=O)c2ccc(Cl)cc2Cl)CC1 (centres unmarked) [Example 70, 2-(2-(2,4-dichloro-N-methylphenylsulfonamido)ethoxy)-N-((4-((dimethylamino)(3-fluorophenyl)methyl)cyclohexyl)methyl)acetamide] | 31% |
| COc1ccc(S(=O)(=O)N2CCCCC2CCOCC(=O)NCC2CCC(C(c3ccccc3)N(C)C)CC2)cc1 (centres unmarked) [Example 89, N-((4-((dimethylamino)(phenyl)methyl)cyclohexyl)methyl)-2-(2-(1-(4-methoxyphenylsulfonyl)piperidin-2-yl)ethoxy)acetamide] | 50% |
| COc1cc(C)c(S(=O)(=O)N2CCCC(OCC(=O)NCC3CCC(C(c4cccs4)N(C)C)CC3)C2)c(C)c1C (centres unmarked) [Example 60, N-((4-((dimethylamino)(thiophen-2-yl)methyl)cyclohexyl)methyl)-2-(1-(4-methoxy-2,3,6-trimethylphenylsulfonyl)piperidin-3-yloxy)acetamide] | 11% |
| COc1ccc(S(=O)(=O)N2CCC(OCC(=O)NCCC3CCC(C(c4cccs4)N(C)C)CC3)C2)cc1OC (centres unmarked) [Example 94, 2-(1-(3,4-dimethoxyphenylsulfonyl)pyrrolidin-3-yloxy)-N-(2-(4-((dimethylamino)(thiophen-2-yl)methyl)cyclohexyl)ethyl)acetamide] | 21% |
| CN(C)C(c1cccs1)C1CCC(CCNC(=O)COCCN(C)S(=O)(=O)c2ccc(Cl)cc2)CC1 (centres unmarked) [Example 37, 2-(2-(4-chloro-N-methylphenylsulfonamido)ethoxy)-N-(2-(4-((dimethylamino)(thiophen-2-yl)methyl)cyclohexyl)ethyl)acetamide] | 21% |
| CN(C)C(c1cccs1)C1CCC(CCNC(=O)COC2CCN(S(=O)(=O)c3ccc(Cl)cc3)C2)CC1 (centres unmarked) [Example 66, 2-(1-(4-chlorophenylsulfonyl)pyrrolidin-3-yloxy)-N-(2-(4-((dimethylamino)(thiophen-2-yl)methyl)cyclohexyl)ethyl)acetamide] | 30% |
| COc1cc(C)c(S(=O)(=O)N(C)CCOCC(=O)NCCC2CCC(C(c3cccs3)N(C)C)CC2)c(C)c1 (centres unmarked) [Example 84, N-(2-(4-((dimethylamino)(thiophen-2-yl)methyl)cyclohexyl)ethyl)-2-(2-(4-methoxy-N,2,6-trimethylphenylsulfonamido)ethoxy)acetamide] | 103% |
| COc1cc(C)c(S(=O)(=O)N2CCN(CCOCC(=O)NC3CCC(C(c4cccc(F)c4)N(C)C)CC3)CC2)c(C)c1C (centres unmarked) [Example 76, N-(4-((dimethylamino)(3-fluorophenyl)methyl)cyclohexyl)-2-(2-(4-(4-methoxy-2,3,6-trimethylphenylsulfonyl)piperazin-1-yl)ethoxy)acetamide] | -7% |
| COc1cc(C)c(S(=O)(=O)N2CCC(OCC(=O)NC3CCC(C(c4cccs4)N(C)C)CC3)CC2)c(C)c1C (centres unmarked) [Example 1, N-(4-((dimethylamino)(thiophen-2-yl)methyl)cyclohexyl)-2-(1-(4-methoxy-2,3,6-trimethylphenylsulfonyl)piperidin-4-yloxy)acetamide] | -5% |

Same assay, conditions: CHO-K1, read-out: B1R Ant. r [10 μM] % Inhibition

| Structure (SMILES) | inhibition at 10 µM |
| --- | --- |
| CN(C)C(c1cccs1)C1CCC(CNC(=O)COCCN(C)S(=O)(=O)c2ccc(F)cc2)CC1 (centres unmarked) [Example 56, N-((4-((dimethylamino)(thiophen-2-yl)methyl)cyclohexyl)methyl)-2-(2-(4-fluoro-N-methylphenylsulfonamido)ethoxy)acetamide] | -4% |
